Assay results as given in ChEMBL document CHEMBL5390310, “Rapid PROTAC Discovery Platform: Nanomole-Scale Array Synthesis and Direct Screening of Reaction Mixtures” (ACS Med Chem Lett, 2023).
The source made the active and inactive calls. The calls are words filed in the database; no cut-off is given here.

Key:
[1] = target: T1, von Hippel-Lindau disease tumor suppressor/Bromodomain-containing protein 4 (Homo sapiens, UniProt O60885+P40337); test: Protac activity at VHL E3 ligase/BRD4 in HEK293 cells assessed as BRD4 degradation by HiBiT assay relative to control; assay type: cell-based
T1 sequence (P40337 whole entry, looked up, other chains not shown): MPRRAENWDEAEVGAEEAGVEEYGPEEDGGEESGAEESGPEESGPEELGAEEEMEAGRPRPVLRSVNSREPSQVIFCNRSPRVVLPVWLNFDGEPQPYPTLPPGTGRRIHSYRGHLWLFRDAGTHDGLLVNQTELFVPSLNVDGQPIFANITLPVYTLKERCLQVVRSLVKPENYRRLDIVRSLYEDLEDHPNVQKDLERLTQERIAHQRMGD

[2] = system: HEK293; test: Cytotoxicity against HEK293 cells assessed as cell viability by CellTiter-Glo based assay; assay type: toxicity; settings: human
[3] = target: T1, von Hippel-Lindau disease tumor suppressor/Bromodomain-containing protein 4; test: Protac activity at VHL E3 ligase/BRD4 in HEK293 cells assessed as BRD4 degradation by HiBiT assay; assay type: cell-based

Activity [1] [%] | Activity [3] | SMILES | Activity [2]
25 | Active | Cc1ncsc1-c1ccc(CNC(=O)[C@@H]2C[C@@H](O)CN2C(=O)[C@@H](NC(=O)COCCOCCOCCNC(=O)C[C@@H]2N=C(c3ccc(Cl)cc3)c3c(sc(C)c3C)-n3c(C)nnc32)C(C)(C)C)cc1 | Non-Toxic
 |  | Cc1sc2c(c1C)C(c1ccc(Cl)cc1)=N[C@@H](CC(=O)O)c1nnc(C)n1-2 | Non-Toxic
 |  | Cc1sc2c(c1C)C(c1ccc(Cl)cc1)=N[C@@H](CC(=O)NCCCCCC(=O)O)c1nnc(C)n1-2 | Non-Toxic
